Assay results as given in US20240415914A1, “Water Dispersible Cannabinoid Compositions” (priority 2021, published 2024).
Where two headings read alike, the source gives them in different places.

Key:
[1] = assay type: physicochemical; settings: stored at room temperature (21-25° C.)
Experimental: At each time period, 0.05 g of powder was dissolved in 10 ml-15 of ethanol, diluted to fall within the analytical range, and injected into the LCMSMS for analysis.

[2] = Stability of cannabinoid and Vitamin E components of Beverage 2 (AB Red) stored at 8° C. and 21-25° C., LCMSMS over 570 days
Experimental: The LCMSMS was calibrated for 0-50 ng/ml cannabinoids with the same resin material used in the preparation of the concentrates. At each time period, 100 μml of beverage was diluted with 10 ml of methanol and injected into the LCMSMS for analysis.

Compound: CCCCCc1cc(O)c2c(c1)OC1(C)CCC3C1C2C3(C)C (stereo not shown) [CBL, cannabicyclol]
- Stability in Powder Concentrate (content by LCMSMS) ([1]; day 0): 0.050 mg/g powder
- Stability in Powder Concentrate (content by LCMSMS) ([1]; day 1): 0.051 mg/g powder
- Stability in Powder Concentrate (content by LCMSMS) ([1]; day 2): 0.049 mg/g powder
- Stability in Powder Concentrate (content by LCMSMS) ([1]; day 3): 0.050 mg/g powder
- Stability in Powder Concentrate (content by LCMSMS) ([1]; day 5): 0.052 mg/g powder
- Stability in Powder Concentrate (content by LCMSMS) ([1]; day 8): 0.050 mg/g powder
- Stability in Powder Concentrate (content by LCMSMS) ([1]; day 9): 0.050 mg/g powder
- Stability in Powder Concentrate (content by LCMSMS) ([1]; day 10): 0.050 mg/g powder
- Stability in Powder Concentrate (content by LCMSMS) ([1]; day 11): 0.052 mg/g powder
- Stability in Powder Concentrate (content by LCMSMS) ([1]; day 12): 0.052 mg/g powder
- Stability in Powder Concentrate (content by LCMSMS) ([1]; day 15): 0.048 mg/g powder
- Stability in Powder Concentrate (content by LCMSMS) ([1]; day 16): 0.049 mg/g powder
- Stability in Powder Concentrate (content by LCMSMS) ([1]; day 17): 0.049 mg/g powder
- Stability in Powder Concentrate (content by LCMSMS) ([1]; day 18): 0.052 mg/g powder
- Stability in Powder Concentrate (content by LCMSMS) ([1]; day 19): 0.052 mg/g powder
- Stability in Powder Concentrate (content by LCMSMS) ([1]; day 22): 0.051 mg/g powder
- Stability in Powder Concentrate (content by LCMSMS) ([1]; day 23): 0.051 mg/g powder
- Stability in Powder Concentrate (content by LCMSMS) ([1]; day 24): 0.050 mg/g powder
- Stability in Powder Concentrate (content by LCMSMS) ([1]; day 25): 0.050 mg/g powder
- Stability in Powder Concentrate (content by LCMSMS) ([1]; day 26): 0.051 mg/g powder
- Stability in Powder Concentrate (content by LCMSMS) ([1]; day 29): 0.048 mg/g powder
- Stability in Powder Concentrate (content by LCMSMS) ([1]; day 30): 0.051 mg/g powder
- Stability in Powder Concentrate (content by LCMSMS) ([1]; day 60): 0.050 mg/g powder
- Stability in Powder Concentrate (content by LCMSMS) ([1]; day 90): 0.050 mg/g powder
- Stability in Powder Concentrate (content by LCMSMS) ([1]; day 120): 0.048 mg/g powder
- Stability in Powder Concentrate (content by LCMSMS) ([1]; day 150): 0.050 mg/g powder
- Stability in Powder Concentrate (content by LCMSMS) ([1]; day 180): 0.049 mg/g powder
- Stability in Powder Concentrate (content by LCMSMS) ([1]; day 210): 0.052 mg/g powder
- Stability in Powder Concentrate (content by LCMSMS) ([1]; day 240): 0.049 mg/g powder
- Stability in Powder Concentrate (content by LCMSMS) ([1]; day 270): 0.051 mg/g powder
- Stability in Powder Concentrate (content by LCMSMS) ([1]; day 300): 0.050 mg/g powder
- Stability in Powder Concentrate (content by LCMSMS) ([1]; day 330): 0.049 mg/g powder
- Stability in Powder Concentrate (content by LCMSMS) ([1]; day 360): 0.050 mg/g powder
- Stability in Powder Concentrate (content by LCMSMS) ([1]; day 390): 0.052 mg/g powder
- Stability in Powder Concentrate (content by LCMSMS) ([1]; day 420): 0.050 mg/g powder
- Stability in Powder Concentrate (content by LCMSMS) ([1]; day 450): 0.052 mg/g powder
- Stability in Powder Concentrate (content by LCMSMS) ([1]; day 480): 0.051 mg/g powder
- Stability in Powder Concentrate (content by LCMSMS) ([1]; day 510): 0.050 mg/g powder
- Stability in Powder Concentrate (content by LCMSMS) ([1]; day 540): 0.048 mg/g powder
- Stability in Powder Concentrate (content by LCMSMS) ([1]; day 570): 0.050 mg/g powder
- Stability of Cannabinoids in AB Red ([2]; 8° C., 0 days): 0.510 µg/mL
- Stability of Cannabinoids in AB Red ([2]; 8° C., 1 days): 0.512 µg/mL
- Stability of Cannabinoids in AB Red ([2]; 8° C., 2 days): 0.508 µg/mL
- Stability of Cannabinoids in AB Red ([2]; 8° C., 3 days): 0.499 µg/mL
- Stability of Cannabinoids in AB Red ([2]; 8° C., 5 days): 0.501 µg/mL
- Stability of Cannabinoids in AB Red ([2]; 8° C., 8 days): 0.496 µg/mL
- Stability of Cannabinoids in AB Red ([2]; 8° C., 9 days): 0.496 µg/mL
- Stability of Cannabinoids in AB Red ([2]; 8° C., 10 days): 0.505 µg/mL
- Stability of Cannabinoids in AB Red ([2]; 8° C., 11 days): 0.501 µg/mL
- Stability of Cannabinoids in AB Red ([2]; 8° C., 12 days): 0.499 µg/mL
- Stability of Cannabinoids in AB Red ([2]; 8° C., 15 days): 0.510 µg/mL
- Stability of Cannabinoids in AB Red ([2]; 8° C., 16 days): 0.502 µg/mL
- Stability of Cannabinoids in AB Red ([2]; 8° C., 17 days): 0.514 µg/mL
- Stability of Cannabinoids in AB Red ([2]; 8° C., 18 days): 0.513 µg/mL
- Stability of Cannabinoids in AB Red ([2]; 8° C., 19 days): 0.510 µg/mL
- Stability of Cannabinoids in AB Red ([2]; 8° C., 22 days): 0.495 µg/mL
- Stability of Cannabinoids in AB Red ([2]; 8° C., 23 days): 0.502 µg/mL
- Stability of Cannabinoids in AB Red ([2]; 8° C., 24 days): 0.508 µg/mL
- Stability of Cannabinoids in AB Red ([2]; 8° C., 25 days): 0.510 µg/mL
- Stability of Cannabinoids in AB Red ([2]; 8° C., 26 days): 0.502 µg/mL
- Stability of Cannabinoids in AB Red ([2]; 8° C., 29 days): 0.511 µg/mL
- Stability of Cannabinoids in AB Red ([2]; 8° C., 30 days): 0.511 µg/mL
- Stability of Cannabinoids in AB Red ([2]; 8° C., 60 days): 0.491 µg/mL
- Stability of Cannabinoids in AB Red ([2]; 8° C., 90 days): 0.501 µg/mL
- Stability of Cannabinoids in AB Red ([2]; 8° C., 120 days): 0.488 µg/mL
- Stability of Cannabinoids in AB Red ([2]; 8° C., 150 days): 0.501 µg/mL
- Stability of Cannabinoids in AB Red ([2]; 8° C., 180 days): 0.506 µg/mL
- Stability of Cannabinoids in AB Red ([2]; 8° C., 210 days): 0.490 µg/mL
- Stability of Cannabinoids in AB Red ([2]; 8° C., 240 days): 0.490 µg/mL
- Stability of Cannabinoids in AB Red ([2]; 8° C., 270 days): 0.504 µg/mL
- Stability of Cannabinoids in AB Red ([2]; 8° C., 300 days): 0.489 µg/mL
- Stability of Cannabinoids in AB Red ([2]; 8° C., 330 days): 0.505 µg/mL
- Stability of Cannabinoids in AB Red ([2]; 8° C., 390 days): 0.491 µg/mL
- Stability of Cannabinoids in AB Red ([2]; 8° C., 420 days): 0.494 µg/mL
- Stability of Cannabinoids in AB Red ([2]; 8° C., 450 days): 0.492 µg/mL
- Stability of Cannabinoids in AB Red ([2]; 8° C., 480 days): 0.487 µg/mL
- Stability of Cannabinoids in AB Red ([2]; 8° C., 510 days): 0.468 µg/mL
- Stability of Cannabinoids in AB Red ([2]; 8° C., 540 days): 0.470 µg/mL
- Stability of Cannabinoids in AB Red ([2]; 8° C., 570 days): 0.469 µg/mL
- Stability of Cannabinoids in AB Red ([2]; 21-25° C., 0 days): 0.51 µg/mL
- Stability of Cannabinoids in AB Red ([2]; 21-25° C., 1 days): 0.50 µg/mL
- Stability of Cannabinoids in AB Red ([2]; 21-25° C., 2 days): 0.50 µg/mL
- Stability of Cannabinoids in AB Red ([2]; 21-25° C., 3 days): 0.50 µg/mL
- Stability of Cannabinoids in AB Red ([2]; 21-25° C., 5 days): 0.51 µg/mL
- Stability of Cannabinoids in AB Red ([2]; 21-25° C., 8 days): 0.50 µg/mL
- Stability of Cannabinoids in AB Red ([2]; 21-25° C., 9 days): 0.51 µg/mL
- Stability of Cannabinoids in AB Red ([2]; 21-25° C., 10 days): 0.50 µg/mL
- Stability of Cannabinoids in AB Red ([2]; 21-25° C., 11 days): 0.50 µg/mL
- Stability of Cannabinoids in AB Red ([2]; 21-25° C., 12 days): 0.50 µg/mL
- Stability of Cannabinoids in AB Red ([2]; 21-25° C., 15 days): 0.50 µg/mL
- Stability of Cannabinoids in AB Red ([2]; 21-25° C., 16 days): 0.51 µg/mL
- Stability of Cannabinoids in AB Red ([2]; 21-25° C., 17 days): 0.51 µg/mL
- Stability of Cannabinoids in AB Red ([2]; 21-25° C., 18 days): 0.50 µg/mL
- Stability of Cannabinoids in AB Red ([2]; 21-25° C., 19 days): 0.49 µg/mL
- Stability of Cannabinoids in AB Red ([2]; 21-25° C., 22 days): 0.49 µg/mL
- Stability of Cannabinoids in AB Red ([2]; 21-25° C., 23 days): 0.51 µg/mL
- Stability of Cannabinoids in AB Red ([2]; 21-25° C., 24 days): 0.50 µg/mL
- Stability of Cannabinoids in AB Red ([2]; 21-25° C., 25 days): 0.51 µg/mL
- Stability of Cannabinoids in AB Red ([2]; 21-25° C., 26 days): 0.51 µg/mL
- Stability of Cannabinoids in AB Red ([2]; 21-25° C., 29 days): 0.49 µg/mL
- Stability of Cannabinoids in AB Red ([2]; 21-25° C., 30 days): 0.51 µg/mL
- Stability of Cannabinoids in AB Red ([2]; 21-25° C., 60 days): 0.50 µg/mL
- Stability of Cannabinoids in AB Red ([2]; 21-25° C., 90 days): 0.49 µg/mL
- Stability of Cannabinoids in AB Red ([2]; 21-25° C., 120 days): 0.50 µg/mL
- Stability of Cannabinoids in AB Red ([2]; 21-25° C., 150 days): 0.49 µg/mL
- Stability of Cannabinoids in AB Red ([2]; 21-25° C., 180 days): 0.50 µg/mL
- Stability of Cannabinoids in AB Red ([2]; 21-25° C., 210 days): 0.49 µg/mL
- Stability of Cannabinoids in AB Red ([2]; 21-25° C., 240 days): 0.49 µg/mL
- Stability of Cannabinoids in AB Red ([2]; 21-25° C., 270 days): 0.49 µg/mL
- Stability of Cannabinoids in AB Red ([2]; 21-25° C., 300 days): 0.50 µg/mL
- Stability of Cannabinoids in AB Red ([2]; 21-25° C., 330 days): 0.50 µg/mL
- Stability of Cannabinoids in AB Red ([2]; 21-25° C., 390 days): 0.49 µg/mL
- Stability of Cannabinoids in AB Red ([2]; 21-25° C., 420 days): 0.48 µg/mL
- Stability of Cannabinoids in AB Red ([2]; 21-25° C., 450 days): 0.49 µg/mL
- Stability of Cannabinoids in AB Red ([2]; 21-25° C., 480 days): 0.48 µg/mL
- Stability of Cannabinoids in AB Red ([2]; 21-25° C., 510 days): 0.47 µg/mL
- Stability of Cannabinoids in AB Red ([2]; 21-25° C., 540 days): 0.47 µg/mL
- Stability of Cannabinoids in AB Red ([2]; 21-25° C., 570 days): 0.47 µg/mL
